Laboratory results reported in article PMC9481533, “Structure-based discovery of small molecules that disaggregate Alzheimer’s disease tissue derived tau fibrils in vitro” (Nature Communications, 2022).
Values joined by “and” are separate entries in the source; they are usually repeats but may differ in a detail not shown here. Identical values can stand only once.

Columns and labels:
MTT cytotoxicity assay = format: cell-based; details: mouse, Neuro2a cells, Neuro2a; final small molecule concentration 10 µM; 24 h; vehicle = 100% viable; individual replicates; read-out: MTT cell viability, compound alone, Fig. 3f
Procedure: (§1) In all, 90 µL of Neuro2a cells were plated on clear 96 well plates (Falcon 353072) at 6000 cells per well and given 24 h to adhere to the plate. Subsequent treatment consisted of PHF samples that were co-incubated with or without 100 µM of small molecules for 48 h at 37 °C, with 10 µl applied per well for a final small molecule concentration of 10 µM. After another 24-h incubation at 37 °C, 20 µl of Thiazolyl Blue Tetrazolium Bromide MTT dye (Sigma; 5 mg/ml stock in DPBS) was added to each well and further incubated for 3.5 h at 37 °C. The assay was arrested by replacement of all media with 100% DMSO and transferred to a SpectraMax MF reader. Background 700 nm readings were subtracted from the absorbance readings at 570 nm. Cells treated with 100% DMSO were designated as 0% viable and those treated only with vehicle were designated as 100% viable. Other well readings were normalized to these values.

Neuro2a cells = assay: MTT cytotoxicity assay; format: cell-based; details: for MTT cell viability, compound alone, Fig. 3f: Neuro2a, final small molecule concentration 10 µM, 24 h, vehicle = 100% viable, individual replicates, 10 µM
Procedure: as §1

[1] = biological target: crude AD brain extracts (tau seeds) in HEK293T tau biosensor cells (Homo sapiens, UniProt P10636); assay: Tau biosensor cell seeding assay, screen with crude AD brain extracts; format: cell-based; details: for Number of seeded aggregates in tau biosensor cells (normalized to confluence), Fig. 2e: 10 μM inhibitor on cells, seeds pre-incubated 16–18 h at 4 °C, individual replicates (n=3), DMSO control 10734.9/12808.5/11145.3; for Inhibition of seeding in biosensor cells: 10 μM screen
Sequence of crude AD brain extracts (tau seeds) in HEK293T tau biosensor cells (P10636 623-695 limits assumed): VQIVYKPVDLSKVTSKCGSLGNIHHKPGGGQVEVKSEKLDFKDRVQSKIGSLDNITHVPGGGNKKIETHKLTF
Source text: From the in silico screen, compounds were ranked and 46 were selected for further experimental validation based on the total binding energy of the ligand/fibril complex. The experimental assessment consisted of direct measures of fibril disassembly (Fig. 2d, e and Supplementary Table 3) and assessment of the seeding capability of the products of disassembled AD tau fibrils in a biosensor cell assay. Disaggregating molecules that produce active seeds are undesirable for therapy and are excluded from further study. HEK293T cells expressing CFP- or YFP-fused tau are transduced with exogenous AD tau fibrils. Externally applied AD-tau fibrils then induce the aggregation of the endogenous fluorescent tau, resulting in the formation of FRET-positive intracellular aggregates, visible as bright puncta by fluorescence microscopy (Fig. 2f). Automated image analysis of visible puncta provides an objective quantification of seeded aggregation. […] Although biosensors may be limited in reporting structural characteristics of fibril progeny, they offer exquisitely sensitive measures of tau seeding activity—the ability for fibrils to recruit monomeric protein into fibrillar form, which is thought to be the mechanism for tau spreading in AD.
(§2) Human autopsy samples were obtained by the Mayo Clinic Brain Bank and UCLA Pathology Department according to HHS regulations from patients consenting to autopsy. Samples were provided to the researchers of this study as anonymized tissues. For purification of paired helical filaments (PHFs) and straight filaments (SFs) from AD brain tissue, extractions were performed according to the previously published protocol without any modifications. […] For biosensor seeding assays with crude AD brain extracts, fresh-frozen tissue from neuropathologically confirmed AD cases was thawed and cut into a 0.2–0.3 g sections. Tissue was manually homogenized in a 15 ml disposable tube in 1 ml of 50 mM Tris, pH 7.4 with 150 mM NaCl, and then aliquoted to PCR tubes and sonicated in a cuphorn bath for 120 min under 30% power at 4 °C in a recirculating ice water bath, according to reference.
(§3) HEK293T cell lines stably expressing tau-K18 P301S-eYFP were obtained from Marc Diamond[25] and used without further characterization or authentication. […] Inhibitors were dissolved in DMSO. […] After twenty minutes, 10 µl of fibrils were added to 90 µl of tau biosensor cells. The number of seeded aggregates was determined by imaging the entire well of a 96-well plate in triplicate using a Celigo Image Cytometer (Nexcelom) in the YFP channel. The number of aggregates in a given image was determined using an ImageJ 2.3.0[50] script, which subtracts the background fluorescence from unseeded cells, and then counts the number of aggregates as peaks with fluorescence above the background using the built-in Particle Analyzer. The number of aggregates was normalized to the confluence of each well, and dose-response plots were generated by calculating the average and standard deviations from triplicate measurements.

[2] = biological target: T1, AD brain-derived tau fibrils (Homo sapiens, UniProt P10636); assay: Negative stain EM and quantitative EM (qEM) of tau fibrils after compound treatment; format: biochemical; details: for Quantitation of fibril number on EM images (qEM), Fig. 3c: relative scale, fibrils alone about 1, individual replicates of 33 micrographs
T1 sequence (P10636 623-695 limits assumed): as above
Procedure: Negatively stained EM Grids were prepared by depositing 6 µl of sample on formvar/carbon-coated copper grids (400 mesh) for 3 min. The sample was rapidly wicked using filter paper without drying the grid and stained with 1% uranyl acetate for 2 min. […] Fibrils were counted from collections of 33 micrographs (in triplicate) for each experimental condition.

[3] = biological target: T1, AD brain-derived tau fibrils; assay: Western blot of insoluble tau after compound treatment; format: biochemical; details: 72 h at 37 °C
Procedure: Proteins were transferred from gel to nitrocellulose membrane using an iBLOT2 system. The membrane was blocked for 1 h in TBST with 5% milk and washed with TBST three times. The membrane was then incubated with primary antibody (anti-tau A0024 (Dako), 1:4000 dilution in 2% milk/TBST solution) for 1 h, washed three times with TBST, incubated with horseradish peroxidase-conjugated secondary antibody (goat anti-mouse IgG H and L (HRP); 1:5000 Dilution in 2% milk/TBST), and washed three times in TBST.

[4] = biological target: brain-purified AD-tau fibrils in HEK293T tau biosensor cells (Homo sapiens, UniProt P10636); assay: Tau biosensor cell seeding assay, dose-dependent inhibition with brain-purified AD-tau fibrils; format: cell-based; details: for Number of seeded aggregates, Supp. Fig. 7: individual replicates
Sequence of brain-purified AD-tau fibrils in HEK293T tau biosensor cells (P10636 623-695 limits assumed): as above
Procedure: as §2, §3

AD-tau PHF = AD-tau PHF (Homo sapiens, UniProt P10636); assay: CryoEM occupancy analysis of EGCG density; format: binding; details: for Occupancy of density at Site 1 relative to fibril backbone / Occupancy of density at Site 2 relative to fibril backbone / Occupancy of density at Site 3 relative to fibril backbone: map low-pass filtered to 7 Å
Sequence of AD-tau PHF (P10636 623-697 limits assumed): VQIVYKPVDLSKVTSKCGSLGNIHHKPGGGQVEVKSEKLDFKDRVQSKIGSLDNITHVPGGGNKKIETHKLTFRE

Brain-derived tau PHFs = Brain-derived tau PHFs (Homo sapiens, UniProt P10636); assay: Dot blot analysis of EGCG time course (GT38, AT8); format: biochemical; details: for GT38 dot blot signal (AD tau aggregates), Supp. Fig. 1 / AT8 dot blot signal (total hyperphosphorylated tau), Supp. Fig. 1: replicates
Sequence of Brain-derived tau PHFs (P10636 623-695 limits assumed): as the sequence (P10636 623-695 limits assumed) above
Procedure: Samples were spotted onto nitrocellulose membrane, 20 µl were spotted for each condition, spotting 2 µl at a time and allowing to dry in between. The membrane was blocked for 1 h in TBST with 5% milk and washed with TBST three times. The membrane was then incubated with primary antibody (either anti-tau GT38 (obtained from Virginia Lee lab at UPenn) or anti-phospho-tau AT8 (cat # MN1020, lot # UL2906281Z), 1:4000 dilution in 2% milk/TBST solution) for 1 h, washed three times with TBST, incubated with horseradish peroxidase-conjugated secondary antibody (goat anti-mouse IgG H and L (HRP); 1:5000 Dilution in 2% milk/TBST), and washed three times in TBST. Signal was detected with Pierce ECL Plus Western Blotting Substrate (cat # 32132), and the blot was imaged with a Pharos FX Plus Molecular Imager.

[5] = system: biosensor cells (HEK293T); assay: Toxicity to biosensor cells under seeding assay conditions; format: cell-based; details: under the assayed conditions (10 μM screen)
Procedure: HEK293T cell lines stably expressing tau-K18 P301S-eYFP were obtained from Marc Diamond[25] and used without further characterization or authentication. Cells were maintained in DMEM (Life Technologies, cat. 11965092) supplemented with 10% (vol/vol) FBS (Life Technologies, cat. A3160401), 1% penicillin/streptomycin (Life Technologies, cat. 15140122), and 1% Glutamax (Life Technologies, cat. 35050061) at 37 °C, 5% CO2 in a humidified incubator. […] Inhibitors were dissolved in DMSO. For seeding, inhibitor-treated seeds were sonicated in a cuphorn water bath for 3 min, and then mixed with 1 volume of […] (Life Technologies, cat. 11668027) prepared by diluting 1 µl of Lipofectamine in 19 µl of OptiMEM. After twenty minutes, 10 µl of fibrils were added to 90 µl of tau biosensor cells. The number of seeded aggregates was determined by imaging the entire well of a 96-well plate in triplicate using a Celigo Image Cytometer (Nexcelom) in the YFP channel. The number of aggregates in a given image was determined using an ImageJ 2.3.0[50] script, which subtracts the background fluorescence from unseeded cells, and then counts the number of aggregates as peaks with fluorescence above the background using the built-in Particle Analyzer. […]

Question: Which results are given for `O=C(Nc1cccc(C(F)(F)F)c1)N1c2ccccc2Sc2ccccc21` [CNS-17, N-[3-(trifluoromethyl)phenyl]-10H-phenothiazine-10-carboxamide]?
Answer: viability at 24 h, 10 µM (MTT cytotoxicity assay): 74.1%; MTT cell viability, compound alone, Fig. 3f (Neuro2a cells): 66.6981% and 63.9984%; Number of seeded aggregates in tau biosensor cells (normalized to confluence), Fig. 2e ([1]; listed as 6870810): 4788.26 and 4837.93 and 6713.19; Fibril reduction by qEM [2]: a corresponding reduction in fibril density was not seen by qEM; Quantitation of fibril number on EM images (qEM), Fig. 3c [2]: 0.7296 and 1.4265 and 0.6447; Reduction of insoluble tau by Western blot [3]: reduction in insoluble tau species; IC50 ([4]; brain-purified AD-tau fibrils, read-out: IC50, inhibition of seeding efficiency in biosensor cells): < 5 µM; Number of seeded aggregates, Supp. Fig. 7 ([4]; inhibitor concentration 1 (µM)): 12634.1 and 17143.6 and 11095.2; Number of seeded aggregates, Supp. Fig. 7 ([4]; inhibitor concentration 2 (µM)): 9200.81 and 9676.73 and 6081.22; Number of seeded aggregates, Supp. Fig. 7 ([4]; inhibitor concentration 5 (µM)): 9500.56 and 10385 and 5182.56; Number of seeded aggregates, Supp. Fig. 7 ([4]; inhibitor concentration 10 (µM)): 11886 and 11650.5 and 6860.55; Number of seeded aggregates, Supp. Fig. 7 ([4]; inhibitor concentration 40 (µM)): 3439.45 and 1968.58 and 2178.79

Question: What does the source list for `O=C(O[C@@H]1Cc2c(O)cc(O)cc2O[C@@H]1c1cc(O)c(O)c(O)c1)c1cc(O)c(O)c(O)c1` [EGCG, Epigallocatechin gallate]?
Answer: viability at 24 h, 10 µM (MTT cytotoxicity assay): 102%; Neuronal cytotoxicity of compound (Neuro2a cells; Neuro 2a (N2a) cells, MTT): no significant cytotoxicity; MTT cell viability, compound alone, Fig. 3f (Neuro2a cells): 108.947% and 94.1622%; Number of seeded aggregates in tau biosensor cells (normalized to confluence), Fig. 2e ([1]; listed as EGCG-PBS): 1.145 and 4.487 and 178.587; Inhibition of seeding in biosensor cells [1]: prevents the formation of any seeds; Occupancy of density at Site 1 relative to fibril backbone (AD-tau PHF; 1-hour EGCG): 43%; Occupancy of density at Site 2 relative to fibril backbone (AD-tau PHF; 1-hour EGCG): 44%; Occupancy of density at Site 3 relative to fibril backbone (AD-tau PHF; 1-hour EGCG): 54%; Occupancy of EGCG at Site 1 (AD-tau PHF; 3-h structure): 66%; Occupancy of density at Site 1 relative to fibril backbone (AD-tau PHF; 3 hr. EGCG): 67%; Occupancy of density at Site 2 relative to fibril backbone (AD-tau PHF; 3 hr. EGCG): 56%; Occupancy of density at Site 3 relative to fibril backbone (AD-tau PHF; 3 hr. EGCG): 62%; Time at which reduction in aggregate level begins (GT38 dot blot) (Brain-derived tau PHFs; 37 °C): 1 to 3 h; GT38 dot blot signal (AD tau aggregates), Supp. Fig. 1 (Brain-derived tau PHFs; EGCG incubation 1 h at 37 °C, relative to 0 h): 0.7905 and 0.6952 and 0.7857; AT8 dot blot signal (total hyperphosphorylated tau), Supp. Fig. 1 (Brain-derived tau PHFs; EGCG incubation 1 h at 37 °C): 0.7495 and 1.415 and 0.8474; AT8 dot blot signal (total hyperphosphorylated tau), Supp. Fig. 1 (Brain-derived tau PHFs; EGCG incubation 3 h at 37 °C): 1.189 and 1.169 and 0.7844; GT38 dot blot signal (AD tau aggregates), Supp. Fig. 1 (Brain-derived tau PHFs; EGCG incubation 3 h at 37 °C): 0.6381 and 0.5905 and 0.6857; AT8 dot blot signal (total hyperphosphorylated tau), Supp. Fig. 1 (Brain-derived tau PHFs; EGCG incubation 6 h at 37 °C): 1.107 and 1.408 and 0.8471; GT38 dot blot signal (AD tau aggregates), Supp. Fig. 1 (Brain-derived tau PHFs; EGCG incubation 6 h at 37 °C): 0.3571 and 0.3381 and 0.6238; AT8 dot blot signal (total hyperphosphorylated tau), Supp. Fig. 1 (Brain-derived tau PHFs; EGCG incubation 24 h at 37 °C): 1.122 and 1.203 and 1.059; GT38 dot blot signal (AD tau aggregates), Supp. Fig. 1 (Brain-derived tau PHFs; EGCG incubation 24 h at 37 °C): 0.2286 and 0.2714 and 0.4143; Electron microscopy of tau fibrils treated with compound (qualitative) ([2]; negative stain EM): nearly gone after 24 h of incubation; Quantitation of fibril number on EM images (qEM), Fig. 3c [2]: 0 and 0.009982; Reduction of insoluble tau by Western blot [3]: substantially reduce the amount of insoluble tau

Question: Which results are given for `Oc1cccc(-c2c3nc(c(-c4cccc(O)c4)c4ccc([nH]4)c(-c4cccc(O)c4)c4nc(c(-c5cccc(O)c5)c5ccc2[nH]5)CC4)C=C3)c1` [FDA-A4, Temoporfin]?
Answer: Toxicity to biosensor cells [5]: toxic to biosensor cells; Number of seeded aggregates in tau biosensor cells (normalized to confluence), Fig. 2e [1]: 356.976 and 1174.27 and 1749.15; Inhibition of seeding in biosensor cells [1]: effective inhibitor
